Test results: PMC11868579 (Nature Communications, 2024)

Experiments:
eIF4E-dTAG protein = biological target: T1, eIF4E-dTAG protein (Homo sapiens, UniProt P06730); assay: CETSA of eIF4E-dTAG protein in H1299 C3-1 cells; type: cell-based; details: relative to control = 1.000, n=3
T1 construct: expressed in transfected cells
Experimental: Cells (1.5 × 10^6 cells) were plated into 75 cm^2 flasks and allowed to attached overnight. After treatment with compound 4 or 5 for 6 h, they were harvested by trypsinisation and washed x2 in ice cold PBS. Cells were resuspended in 1 ml of cold PBS supplemented with protease and phosphatase inhibitors (Fisher Scientific, cat#1861281). Resuspended cells were divided into 100 μl aliquots and centrifuged at 300 x g for 3 min at 4 °C. Following centrifugation, 75μl of supernatant was removed and cells resuspended in the remaining volume. Cell suspensions were heated at 40.9, 43.7, 48.1, 52.9, 57.6, 62.4, 67.2, 71.9, 76.3 and 79.1 °C for 3 mins followed by cooling at 20 °C for 3 min[25]. Suspensions were freeze-thawed twice using liquid nitrogen. Soluble fractions were separated from cell debris by centrifuging at 20,000 x g for 30 min at 4 °C. Samples were then analysed by Western Blot. […]
Vinculin was used as a loading control. c Thermal stabilisation of eIF4E-dTAG protein by compound 4 or 5 binding. Quantification of immunoblots from H1299 C3-1cells incubated at 57.6 °C, following treatment with compound 4 (50, 25, 10, 5, 1, 0.5 μM) or compound 5 (50 μM) for 6 hr. Vinculin was […]
(1 picture or pasted object on this page, not shown here)

[1] = test system: cap-dependent and cap-independent (IRES) protein synthesis; assay: Bicistronic protein synthesis reporter in HEK293 cells; type: cell-based, human; details: for Cap translation, Average / IRES, Average: HEK293, n=3; for Cap translation, Average: cap-dependent luciferase reporter; for IRES, Average: cap-independent luciferase driven by viral IRES
Experimental: Supplementary Fig. 10 Determination of the effects of compound 4 on protein synthesis and viability. a HEK293 cells were transfected with protein synthesis reporter expressing bicistonic mRNA with a cap-dependent luciferase reporter and a cap-independent luciferase driven by a viral IRES. Cells were treated with 1 or 10 µM […]
with compound 4 for 24 hr. […]
Source data is located in the Supplementary Source Data file

full-length eIF4G:eIF4E = biological target: T2, full-length eIF4G:eIF4E (Homo sapiens, UniProt P06730); assay: eIF4G:eIF4E binding, summary over cell line lysates; type: biochemical
T2 construct: endogenous in cells; host or cells: HeLa, SW620 or H1299 cells (lysates; intact H1299 cells in A13)
T2 sequence (P06730 2-217 limits assumed): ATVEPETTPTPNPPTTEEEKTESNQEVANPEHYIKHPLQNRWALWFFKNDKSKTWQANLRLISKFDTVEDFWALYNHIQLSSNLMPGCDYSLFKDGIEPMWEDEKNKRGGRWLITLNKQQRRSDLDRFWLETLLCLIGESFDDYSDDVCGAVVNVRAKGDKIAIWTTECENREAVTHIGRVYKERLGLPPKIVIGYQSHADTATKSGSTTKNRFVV
Experimental: This assay uses plates with carbon electrodes and electro-chemiluminescent labels (SULFO-TAGs) that are conjugated to detection antibodies. When an electric current is applied to the plate electrodes the SULFO-TAG labels will emit light that is measured to quantify analytes in the sample. […] For measuring exogenously expressed FLAG-tagged-eIF4E, 96-well Multiarray SECTOR plates with carbon electrodes (MSD, cat#L15XB) were coated with 25 ul of 4 µg/ml anti-FLAG M2 (Sigma-aldrich, cat#F1804, RRID:AB_262044) in PBS for 1 hr at RT with shaking. The plates were washed with 3 ×150 µl/well MSD wash buffer (cat#R61AA-1; 0.2% Tween-20 in PBS), then blocked with 150 µl/well block buffer (MSD, cat# R93AA) for 1 h. […] The incubated plates were washed 4x in 150 µl in MSD wash buffer and were re-blocked by the addition of 25 μl of blocking buffer containing a 1:500 dilution of the secondary antibody and incubated for 1 hr at RT with rotational shaking. […] Plates were then washed again 4x in 150 µl in MSD wash buffer and 25 μl of a 1:50 dilution of Goat anti-rabbit Sulfo-Tag (MSD, Cat# R32AB-1) in MSD blocking buffer was added and the plates incubated for 1 h at RT with rotational shaking. After a final wash step, 150 μl Read Buffer T4X (MSD, Cat# R92-TC2) was added and the plate read using the MSD QuickPlex SQ 120 plate reader.

[2] = Plasma protein binding, rapid equilibrium dialysis; type: in vitro ADME; details: human plasma, 1 µM, 16 hrs
Experimental: Measurement of aqueous kinetic solubility at pH 7.5
Solubility was measured in 50 mM HEPES, 100 mM NaCl (15% D2O, 85% H2O) in the presence of 1 mM TCEP at pH 7.5. Samples were prepared at 50 mM in DMSO-d6, diluted x 50 into buffer affording nominal concentrations of 1 mM and analysed by 1H quantitative NMR. Spectra were acquired at 300K in 5 mm tubes on a 400 MHz Bruker Avance III HD spectrometer equipped with a BBO-F probe using water suppression (presat/Watergate). A 5 mM sample of 4-hydroxybenzoic acid was used as the qNMR standard. The raw data files were processed using MNova with qNMR […]
Caco-2 permeability Assay
The permeability of Compound 4 was assessed using the CacoReady system.
Compound 4 and control compounds (propranolol, antipyrine, and vinblastine) were incubated at a final concentration of 10 µM in duplicate to either the apical (180 µL) of the monolayer to measure apical to basolateral transport (A > B) across the cell barrier or to the basolateral side (750 µL) to measure the basolateral to apical transport (B > A). […]
Plasma protein binding measured using the rapid equilibrium dialysis (RED) device system. […] Percent bound was calculated as the ([plasma cmpt] / [plasma cmpt + […]

T1 sequence (P06730 with tags, fused parts or gaps): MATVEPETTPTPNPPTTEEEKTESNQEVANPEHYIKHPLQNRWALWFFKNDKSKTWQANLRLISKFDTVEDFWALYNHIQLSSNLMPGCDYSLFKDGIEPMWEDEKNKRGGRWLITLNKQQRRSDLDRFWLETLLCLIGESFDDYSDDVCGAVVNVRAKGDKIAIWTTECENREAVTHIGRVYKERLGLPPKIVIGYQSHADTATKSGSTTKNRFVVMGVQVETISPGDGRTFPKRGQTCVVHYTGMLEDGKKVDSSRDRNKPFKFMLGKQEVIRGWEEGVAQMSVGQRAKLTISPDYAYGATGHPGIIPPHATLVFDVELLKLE

CC[C@H](O[C@H](C)CO)c1ccc(-c2ccccc2F)cc1NCCO [Compound 4]
Thermal stabilisation of eIF4E-dTAG protein, Average (eIF4E-dTAG protein; 0.5 μM): 1.070 | Thermal stabilisation of eIF4E-dTAG protein, Average (eIF4E-dTAG protein; 1 μM): 1.047 | Thermal stabilisation of eIF4E-dTAG protein, Average (eIF4E-dTAG protein; 5 μM): 1.235 | Thermal stabilisation of eIF4E-dTAG protein, Average (eIF4E-dTAG protein; 10 μM): 1.737 | Thermal stabilisation of eIF4E-dTAG protein, Average (eIF4E-dTAG protein; 25 μM): 1.613 | Thermal stabilisation of eIF4E-dTAG protein, Average (eIF4E-dTAG protein; 50 μM): 1.946 | Cap translation, Average ([1]; 1μM): 87.46 | IRES, Average ([1]; 1μM): 89.67 | Cap translation, Average ([1]; 10μM): 74.14 | IRES, Average ([1]; 10μM): 83.90 | inhibitory activity in dual reporter assay ([1]; HEK293 cells, 1 or 10 µM, 24 hr): lacked inhibitory activity | EC50 (full-length eIF4G:eIF4E; read-out: EC50s, eIF4G:eIF4E electro-chemiluminescent binding assay, three different cell line lysates): 1400 to 2600 nM | IC50 (full-length eIF4G:eIF4E; read-out: full-length eIF4G:eIF4E IC50, lysates and intact cell engagement assays): 1000 to 2000 nM | Plasma protein binding [2]: 98.9%

CC[C@@H](O[C@H](C)CO)c1ccc(-c2ccccc2F)cc1NCCO [Compound 5]
Thermal stabilisation of eIF4E-dTAG protein, Average (eIF4E-dTAG protein; 50 μM): 1.004
